The nature of series [1]: Hygroscopicity of the solid salts. Format: physicochemical. The settings on record: for hygroscopicity of the starting material: remark in brackets on the reagent used.
For series [2] the following is noted: milieu with a high relative humidity content; U.S. Pat. No. 4,602,039; cited from earlier work.

Counter-ions that a name gives are not always drawn.

As for `NCC(=O)O` [glycine hydrochloride], in series [1], the “hygroscopicity of the starting material” value is recorded as “hygroscopic”.
As for `CC(=O)O[C@H](CC(=O)[O-])C[N+](C)(C)C` [acetyl L-carnitine inner salt], the “hygroscopicity of the starting material” value in series [1] is listed as “hygroscopic”.
On to `CCC(=O)O[C@H](CC(=O)O)C[N+](C)(C)C` [Example 2, Propionyl L-Carnitine Salt with Taurine Chloride], for which, in series [1] (white crystalline solid as obtained), the “hygroscopicity of the isolated solid” value is “non-hygroscopic”.
With `CCC(=O)O[C@H](CC(=O)[O-])C[N+](C)(C)C` [propionyl L-carnitine inner salt], in series [1], the “hygroscopicity of the starting material” value is “hygroscopic”.
With `C[N+](C)(C)C[C@H](O)CC(=O)[O-].O=C(O)/C=C/C(=O)O` [L-carnitine fumarate], the “hygroscopicity of a prior-art salt” value in series [2] is “highly non-hygroscopic”.

Values taken from US7858820B2, “Solid compositions suitable for oral administration containing non-hygroscopic salts of L-carnitine and the alkanoyl L-carnitines with taurine chloride and glycine chloride” (Sigma-Tau Industrie Farmaceutiche Riunite S.p.A., priority 2001, dated 2010).
